Legend:
[1] = system: spindle assembly checkpoint; experiment: SAC-Formation - Nocodazole-Induced Assay; type: cell-based; details: Homo sapiens; HeLa cells, nocodazole 0.1 μg/ml, 24 h, phosphorylated histone H3 on serine 10
Procedure, shortened: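 HeLa cells were given nocodazole at 0.1 μg/ml final together with compounds (0.005–20 μM, 0.5% DMSO) for 24 h at 37° C. Mitotic cells were counted by phospho-histone H3 Ser10 immunostaining, with cell number from HOECHST 33342, by high-content imaging. The loss of mitotic cells was fitted with a four-parameter Hill equation.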

HeLa = experiment: Proliferation assay (crystal violet), HeLa; type: cell-based; details: Homo sapiens, 96 h, 4 days, read-out: Inhibition of proliferation IC50 HeLa
Experimental: Cultivated tumor cells (cells were ordered from ATCC, except HeLa-MaTu and HeLa-MaTu-ADR, which were ordered from EPO-GmbH, Berlin) were plated at a density of 1000 to 5000 cells/well, depending on the growth rate of the respective cell line, in a 96-well multititer plate in 200 μL of their respective growth medium supplemented 10% fetal calf serum. After 24 hours, the cells of one plate (zero-point plate) were stained with crystal violet (see below), while the medium of the other plates was replaced by fresh culture medium (200 μl), to which the test substances were added in various concentrations (0 μM, as well as in the range of 0.001-10 μM; the final concentration of the solvent dimethyl sulfoxide was 0.5%). The cells were incubated for 4 days in the presence of test substances. Cell proliferation was determined by staining the cells with crystal violet: the cells were fixed by adding 20 μl/measuring point of an 11% glutaric aldehyde solution for 15 minutes at room temperature. After three washing cycles of the fixed cells with water, the plates were dried at room temperature. The cells were stained by adding 100 μl/measuring point of a 0.1% crystal violet solution (pH 3.0). After three washing cycles of the stained cells with water, the plates were dried at room temperature. The dye was dissolved by adding 100 μl/measuring point of a 10% acetic acid solution. Absorption was determined by photometry at a wavelength of 595 nm. The change of cell number, in percent, was calculated by normalization of the measured values to the absorption values of the zero-point plate (=0%) and the absorption of the untreated (0 μm) cells (=100%). The IC50 values were determined by means of a 4 parameter fit.

SMILES	IC50 [1] [nM]	IC50 (HeLa) [nM]
COc1ccc(NC(=O)c2c(C)nsc2Nc2cnc3ccc(Cl)cc3n2)cn1 [Example 42, 5-[(7-Chloroquinoxalin-2-yl)amino]-N-(6-methoxypyridin-3-yl)-3-methyl-1,2-thiazole-4-carboxamide]	260	1200
COc1ccc(NC(=O)c2c(C)nsc2Nc2nc3c(C(F)(F)F)cccc3s2)cn1 [Example 48, N-(6-Methoxypyridin-3-yl)-3-methyl-5-{[4-(trifluoromethyl)-1,3-benzothiazol-2-yl]-amino}-1,2-thiazole-4-carboxamide]	130	580
COC(=O)c1cnc(Nc2snc(C)c2C(=O)Nc2ccc(F)c(F)c2)o1 [Example 97, Methyl 2-({4-[(3,4-difluoro-phenyl)carbamoyl]-3-methyl-1,2-thiazol-5-yl}amino)-1,3-oxazole-5-carboxylate]	5900	10000
CCc1ccccc1NC(=O)c1c(C)nsc1Nc1cnccn1 [Example 1, N-(2-Ethylphenyl)-3-methyl-5-(pyrazin-2-ylamino)-1,2-thiazole-4-carboxamide]	1800	8800
COc1ccc(NC(=O)c2c(C)nsc2Nc2nccnc2C#N)cn1 [Example 24, 5-[(3-Cyanopyrazin-2-yl)amino]-N-(6-methoxypyridin-3-yl)-3-methyl-1,2-thiazole-4-carboxamide]	3800	> 10000
Cc1nsc(Nc2nc3c(C(F)(F)F)ccnc3s2)c1C(=O)Nc1ccc(Cl)c(F)c1 [Example 103, N-(4-Chloro-3-fluorophenyl)-3-methyl-5-{[7-(trifluoromethyl)[1,3]thiazolo[5,4-b]pyridin-2-yl]amino}-1,2-thiazole-4-carboxamide]	240	2900
CCOC(=O)c1coc(Nc2snc(C)c2C(=O)Nc2ccc(F)c(F)c2)n1 [Example 98, Ethyl 2-({4-[(3,4-difluoro-phenyl)carbamoyl]-3-methyl-1,2-thiazol-5-yl}amino)-1,3-oxazole-4-carboxylate]	3000	10000
CCc1ccccc1NC(=O)c1c(C)nsc1Nc1ncnc2ccccc12 [Example 10, N-(2-Ethylphenyl)-3-methyl-5-(quinazolin-4-ylamino)-1,2-thiazole-4-carboxamide]	6500	7200
Cc1nsc(Nc2cc(C#N)ccn2)c1C(=O)Nc1ccc(Cl)c(F)c1 [Example 54, N-(4-Chloro-3-fluorophenyl)-5-[(4-cyanopyridin-2-yl)amino]-3-methyl-1,2-thiazole-4-carboxamide]	19	800
COc1ccc(NC(=O)c2c(C)nsc2Nc2cnc3cc(C(F)(F)F)ccc3n2)cn1 [Example 45, N-(6-Methoxypyridin-3-yl)-3-methyl-5-{[6-(trifluoromethyl)quinoxalin-2-yl]amino}-1,2-thiazole-4-carboxamide]	54	340
Cc1nsc(Nc2ncc(C(=O)N(C)C)s2)c1C(=O)Nc1ccc(F)c(F)c1 [Example 49, N-(3,4-Difluorophenyl)-5-{[5-(dimethylcarbamoyl)-1,3-thiazol-2-yl]amino}-3-methyl-1,2-thiazole-4-carboxamide]	350	4400
COc1ccc(Oc2ccc(NC(=O)c3c(C)nsc3Nc3cnc4ccccc4n3)cn2)cc1 [Example 116, N-[6-(4-Methoxyphenoxy)pyridin-3-yl]-3-methyl-5-(quinoxaline-2-ylamino)-1,2-thiazole-4-carboxamide]	1600	3200
COC(=O)c1cncc(Nc2snc(C)c2C(=O)Nc2ccc(OC)nc2)n1 [Example 101, Methyl 6-({4-[(6-methoxypyridin-3-yl)carbamoyl]-3-methyl-1,2-thiazol-5-yl}amino)pyrazine-2-carboxylate]	1800	7200
COc1ccc(NC(=O)c2c(C)nsc2Nc2nc3c(C(F)(F)F)cccc3s2)cc1F [Example 47, N-(3-Fluoro-4-methoxyphenyl)-3-methyl-5-{[4-(trifluoromethyl)-1,3-benzothiazol-2-yl]amino}-1,2-thiazole-4-carboxamide]	92	370
Cc1nsc(Nc2cnc3ccccc3n2)c1C(=O)Nc1ccc(Oc2ccc(F)cc2F)nc1 [Example 113, N-[6-(2,4-Difluorophenoxy)pyridin-3-yl]-3-methyl-5-(quinoxalin-2-ylamino)-1,2-thiazole-4-carboxamide]	470	880
COc1ccc(NC(=O)c2c(C)nsc2Nc2ccc(C#N)cn2)cn1 [Example 39, 5-[(5-Cyanopyridin-2-yl)amino]-N-(6-methoxypyridin-3-yl)-3-methyl-1,2-thiazole-4-carboxamide]	1300	6700
Cc1nsc(Nc2nc3c(C(F)(F)F)cccc3s2)c1C(=O)Nc1ccc(F)c(F)c1 [Example 51, N-(3,4-Difluorophenyl)-3-methyl-5-{[4-(trifluoromethyl)-1,3-benzothiazol-2-yl]-amino}-1,2-thiazole-4-carboxamide]	39	570

More lines, in order of falling IC50 [1], values ahead:

IC50 [1] [nM]	IC50 (HeLa) [nM]	SMILES
20000	3300	CCNC(=O)c1csc(Nc2snc(C)c2C(=O)Nc2ccc(F)c(F)c2)n1 [Example 99, N-(3,4-Difluorophenyl)-5-{[4-(ethylcarbamoyl)-1,3-thiazol-2-yl]amino}-3-methyl-1,2-thiazole-4-carboxamide]
1300	2400	CCc1ccccc1NC(=O)c1c(C)nsc1Nc1cc(-n2ccnc2)ncn1 [Example 9, N-(2-Ethylphenyl)-5-{[6-(1H-imidazol-1-yl)pyrimidin-4-yl]amino}-3-methyl-1,2-thiazole-4-carboxamide]
590	> 10000	CCc1ccccc1NC(=O)c1c(C)nsc1Nc1ncnc2ccsc12 [Example 13, N-(2-Ethylphenyl)-3-methyl-5-(thieno[3,2-d]pyrimidin-4-ylamino)-1,2-thiazole-4-carboxamide]
340	1000	Cc1nsc(Nc2nc3c(C(F)(F)F)cccc3s2)c1C(=O)Nc1ccc(Cl)c(F)c1 [Example 53, N-(4-Chloro-3-fluorophenyl)-3-methyl-5-{[4-(trifluoromethyl)-1,3-benzothiazol-2-yl]amino}-1,2-thiazole-4-carboxamide]
310	2800	CCOC(=O)c1cnc(Nc2snc(C)c2C(=O)Nc2ccc(OC)nc2)s1 [Example 29, Ethyl 2-({4-[(6-methoxypyridin-3-yl)carbamoyl]-3-methyl-1,2-thiazol-5-yl}amino)-1,3-thiazole-5-carboxylate]
200	2400	COc1ccc(NC(=O)c2c(C)nsc2Nc2cnc3ccc(F)cc3n2)cn1 [Example 44, 5-[(7-Fluoroquinoxalin-2-yl)amino]-N-(6-methoxypyridin-3-yl)-3-methyl-1,2-thiazole-4-carboxamide]
150	7500	CCc1ccccc1NC(=O)c1c(C)nsc1Nc1cc(C(F)(F)F)ccn1 [Example 18, N-(2-Ethylphenyl)-3-methyl-5-{[4-(trifluoromethyl)pyridin-2-yl]amino}-1,2-thiazole-4-carboxamide]
60	1700	Cc1nsc(Nc2cc(C#N)ccn2)c1C(=O)Nc1ccc(OC2CCCCC2)nc1 [Example 118, 5-[(4-Cyanopyridin-2-yl)amino]-N-[6-(cyclohexyloxy)pyridin-3-yl]-3-methyl-1,2-thiazole-4-carboxamide]
59	1800	Cc1nsc(Nc2cnc3ccccc3n2)c1C(=O)Nc1ccc(OC(C)C)nc1 [Example 122, N-(6-Isopropoxypyridin-3-yl)-3-methyl-5-(quinoxalin-2-ylamino)-1,2-thiazole-4-carboxamide]
51	2500	CCc1ccccc1NC(=O)c1c(C)nsc1Nc1cnc2ccccc2n1 [Example 19, N-(2-Ethylphenyl)-3-methyl-5-(quinoxalin-2-ylamino)-1,2-thiazole-4-carboxamide]
41	1600	Cc1nsc(Nc2ccc(C#N)cn2)c1C(=O)Nc1ccc(F)c(F)c1 [Example 28, 5-[(5-Cyanopyridin-2-yl)amino]-N-(3,4-difluorophenyl)-3-methyl-1,2-thiazole-4-carboxamide]
34	420	COc1ccc(NC(=O)c2c(C)nsc2Nc2cnc3c(F)c(F)ccc3n2)cn1 [Example 43, 5-[(5,6-Difluoroquinoxalin-2-yl)amino]-N-(6-methoxypyridin-3-yl)-3-methyl-1,2-thiazole-4-carboxamide]
31	1100	Cc1nsc(Nc2cc(C#N)ccn2)c1C(=O)Nc1ccc(Oc2ccc(F)cc2F)nc1 [Example 114, 5-[(4-Cyanopyridin-2-yl)amino]-N-[6-(2,4-difluorophenoxy)pyridin-3-yl]-3-methyl-1,2-thiazole-4-carboxamide]

Reference: US9682995B2, “Amino-substituted isothiazoles” (BAYER PHARMA AKTIENGESELLSCHAFT, priority 2013, dated 2017)
